Source: US4241083A, “Germicidal composition for agriculture and horticulture” (priority 1978, dated 1980)

Experiments:
Mycosphaerella melonis = test: Growth of germs on potato dextrose-agar medium containing the compound (Ex. 13); format: cell-based; parameters: key: +++: extremely much growth; ++: much growth; +: a little growth; -: no growth; details: two weeks, 25° C.
Method: (§1) Ethyl 2-(2-hydroxyethylamino)-3-benzoylpropionate hydrochloride was added to potato dextrose-agar culture medium in the concentration indicated in Table 1 and the suspensions of various kinds of germs were dropped on the culture medium. After incubation of the germs for two weeks in thermostat (25° C.), the growing conditions were observed.
(§2) In Table 1, +++, ++, + and - represent "extremely much growth", "much growth", "a little growth" and "no growth" respectively.

[1] = tested on: Colletotrichum lagenarium; test: Prevention effect for anthracnose on cucumber (Ex. 18); format: in vivo; details: for Germicidal damage to seedlings: cucumber seedlings; for Number of disease spots per leaf / Percentage of leaves attacked with the disease / Prevention value per leaf (Perfect prevention = 100): sixth day after spraying
Description: The prevention effect for anthracnose on cucumber was investigated in the following manner.
An aqueous solution of ethyl 2-(2-hydroxyethylamino)-3-benzoylpropionate hydrochloride (2500 ppm and 5000 ppm) was sprayed on cucumber seedlings (bifoliate age) of Tokiwa Hikari No. 3 (p type) variety which were planted in sections of two rows of three.
After air-drying the seedlings, a spore suspention of Colletotrichum lagenarium was inoculated on the test seedlings by means of a glass sprayer. The inoculated seedlings were kept at 20°-22° C. for four days in the inoculation box, and then allowed to stand in a glass chamber.
The number of disease spots of anthracnose that appeared on the cucumber leaves was measured on the sixth day after spraying the germicidal aqueous solution. The number of spots can be used to calculate a prevention value. Using the number of spots that appeared per control leaf as a reference, the relative number per hundred of spots prevented by the experimental germicide is the prevention value. Thus a perfectly preventive germicide has a prevention value of 100 and the control has a prevention value of 0.

Botrytis alli = test: Growth of germs on potato dextrose-agar medium containing the compound (Ex. 3); format: cell-based; parameters: key: +++: extremely much growth; ++: much growth; +: a little growth; -: no growth; details: two weeks, 25° C.
Method: as §1, §2

Cladosporium cucumerium [2] = test: Growth of germs on potato dextrose-agar medium containing the compound (Ex. 4); format: cell-based; parameters: key: +++: extremely much growth; ++: much growth; +: a little growth; -: no growth; details: two weeks, 25° C.
Method: as §1, §2

Cladosporium fulvum = test: Growth of germs on potato dextrose-agar medium containing the compound (Ex. 5); format: cell-based; parameters: key: +++: extremely much growth; ++: much growth; +: a little growth; -: no growth; details: two weeks, 25° C.
Method: as §1, §2

[3] = tested on: Colletotrichum lagenarium; test: Growth of germs on potato dextrose-agar medium containing the compound (Ex. 10, germ of anthracnose on watermelons); format: cell-based; parameters: key: +++: extremely much growth; ++: much growth; +: a little growth; -: no growth; details: two weeks, 25° C.
Method: as §1, §2
^2 Germ of anthracnose on watermelons

Cladosporium cucumerium [4] = test: Prevention effect for cucumber scab (Ex. 19); format: in vivo; details: for Germicidal damage to seedlings: cucumber seedlings; for Percentage of leaf area with disease spots / Percentage of leaves attacked with the disease / Prevention value per leaf (Perfect prevention = 100): eighth day after spraying
Description: The prevention effect for cucumber scab was examined in the following manner.
An aqueous solution of ethyl 2-(2-hydroxyethylamino)-3-benzoylpropionate hydrochloride (2500 ppm or 5000 ppm) was sprayed on cucumber seedlings (bifoliate age) of Tokiwa Hikari No. 3 (p type) variety which were planted in sections in two rows of three.
After air-drying the seedlings, a spore suspention of Cladosporium cucumerium was inoculated on the test seedlings by means of a glass sprayer. The inoculated seedlings were kept at 18°-20° C. for four days in an inoculation box and then allowed to stand in a glass chamber.
The leaf area on which scab spots appeared was measured on the eighth day after spraying the aqueous germicide solution. The spotted area is expressed as a prevention value.

CCOC(=O)C(CC(=O)c1ccccc1)NCCO.Cl (centres unmarked) [Ethyl 2-(2-hydroxyethylamino)-3-benzoylpropionate hydrochloride]
growing conditions (growth of germ) (Mycosphaerella melonis; 10 ppm): +++ | growing conditions (growth of germ) (Mycosphaerella melonis; 20 ppm): - | growing conditions (growth of germ) (Mycosphaerella melonis; 50 ppm): - | growing conditions (growth of germ) (Mycosphaerella melonis; 100 ppm): - | growing conditions (growth of germ) (Mycosphaerella melonis; 200 ppm): - | Germicidal damage to seedlings ([1]; 2500 ppm): none | Number of disease spots per leaf ([1]; 2500 ppm): 2.83 | Percentage of leaves attacked with the disease ([1]; 2500 ppm): 83.3% | Prevention value per leaf (Perfect prevention = 100) ([1]; 2500 ppm): 88.0 | Germicidal damage to seedlings ([1]; 5000 ppm): none | Number of disease spots per leaf ([1]; 5000 ppm): 2.92 | Percentage of leaves attacked with the disease ([1]; 5000 ppm): 91.7% | Prevention value per leaf (Perfect prevention = 100) ([1]; 5000 ppm): 87.6 | growing conditions (growth of germ) (Botrytis alli; 10 ppm): + | growing conditions (growth of germ) (Botrytis alli; 20 ppm): - | growing conditions (growth of germ) (Botrytis alli; 50 ppm): - | growing conditions (growth of germ) (Botrytis alli; 100 ppm): - | growing conditions (growth of germ) (Botrytis alli; 200 ppm): - | growing conditions (growth of germ) (Cladosporium cucumerium [2]; 10 ppm): +++ | growing conditions (growth of germ) (Cladosporium cucumerium [2]; 20 ppm): +++ | growing conditions (growth of germ) (Cladosporium cucumerium [2]; 50 ppm): - | growing conditions (growth of germ) (Cladosporium cucumerium [2]; 100 ppm): - | growing conditions (growth of germ) (Cladosporium cucumerium [2]; 200 ppm): - | growing conditions (growth of germ) (Cladosporium fulvum; 10 ppm): ++ | growing conditions (growth of germ) (Cladosporium fulvum; 20 ppm): - | growing conditions (growth of germ) (Cladosporium fulvum; 50 ppm): - | growing conditions (growth of germ) (Cladosporium fulvum; 100 ppm): - | growing conditions (growth of germ) (Cladosporium fulvum; 200 ppm): - | growing conditions (growth of germ) ([3]; 10 ppm): ++ | growing conditions (growth of germ) ([3]; 20 ppm): ++ | growing conditions (growth of germ) ([3]; 50 ppm): - | growing conditions (growth of germ) ([3]; 100 ppm): - | growing conditions (growth of germ) ([3]; 200 ppm): - | Germicidal damage to seedlings (Cladosporium cucumerium [4]; 2500 ppm): none | Percentage of leaf area with disease spots (Cladosporium cucumerium [4]; 2500 ppm): 25.0% | Percentage of leaves attacked with the disease (Cladosporium cucumerium [4]; 2500 ppm): 100% | Prevention value per leaf (Perfect prevention = 100) (Cladosporium cucumerium [4]; 2500 ppm): 63.4 | Germicidal damage to seedlings (Cladosporium cucumerium [4]; 5000 ppm): none | Percentage of leaf area with disease spots (Cladosporium cucumerium [4]; 5000 ppm): 20.0% | Percentage of leaves attacked with the disease (Cladosporium cucumerium [4]; 5000 ppm): 100% | Prevention value per leaf (Perfect prevention = 100) (Cladosporium cucumerium [4]; 5000 ppm): 70.7
